According to patent publication US11279719B2, “Substituted bicyclic pyrimidine-based compounds and compositions and uses thereof” (priority 2017, dated 2022):
Read-outs that look alike come from different tables or passages of the source.

How the values were obtained:
[1] = test system: RPMI-8226; experiment: MM cell viability assay (MTS proliferation); type: cell-based; conditions: Homo sapiens, 72 hours, average of n ≥ 8 determinations, read-out: MM cells EC50, RPMI-8226
[2] = target: recombinant human GGPPS (Homo sapiens (Human), UniProt O95749); experiment: In vitro hGGPPS inhibition assay; type: biochemical; conditions: for IC50: wild-type hGGPPS enzyme, average of n ≥ 3 determinations; for selectivity improved for inhibiting hGGPPS vs hFPPS: starting from the original hits, e.g. C-5
[3] = in vitro; conditions: human, microsomes
[4] = in vitro; conditions: Sprague-Dawley, rat, microsomes
[5] = test system: JJN3; experiment: MM cell viability assay (MTS proliferation); type: cell-based; conditions: Homo sapiens, JJN-3; 72 hours, average of n ≥ 8 determinations; read-out: MM cells EC50, JJN3
Procedure: (§1) Various MM cancer cell lines (Table 3 and FIGS. 5 and 6) were cultured in RPMI-1640 medium supplemented with 10% fetal bovine serum (Gibco BRL, Gaithersburg, Md.) supplemented with 2 mM L-glutamine in a 5% CO2 atmosphere at 37° C. EC50 values for each target compound were determined using a commercial MTS proliferation assay (Promega, Madison, Wis.) following the manufacturer's instructions. Briefly, compounds were diluted directly into culture medium and then applied to cells that were seeded in 96-well plates at a density 5,000 cells per well. Cells were incubated with the indicated final concentration of compound in a total media volume of 100 μl/well for 72 hours prior to the addition of the MTS reagent. Plates were incubated at 37° C. in the presence 5% CO2 for 2 hours prior to recording OD490 using a Tecan Infinite M200Pro microplate reader. Results were analyzed to obtain dose-response curves and EC50 calculations using GraphPad PRISM version 5 for the MacIntosh (GraphPad Software, San Diego, Calif.).

[6] = test system: KMS28PE; experiment: MM cell viability assay (MTS proliferation); type: cell-based; conditions: Homo sapiens, KMS-28PE; 72 hours, average of n ≥ 8 determinations; read-out: MM cells EC50, KMS28PE
Procedure: as §1

[7] = Lipophilicity by C-18 reversed phase HPLC relative retention; conditions: versus zolodronic acid
[8] = test system: normal human bronchial cells (NHBE); experiment: Cell viability (CellTiter-Glo), normal cells; type: cell-based; conditions: compared to doxorubicin, FIG. 3a
Procedure: (§2) NCI-ADR-RES cells were obtained from National Cancer Institute (NCI) and all other cell lines were obtained from the American Type Culture Collection (ATCC). NHBE cells were maintained in Bronchial Epithelial Cell Growth Medium (BEGM) supplemented with 10% FBS (Multicell) and 2 mM L-glutamine (Gibco/Life Technologies). All other cells were maintained in culture using Roswell Park Memorial Institute (RPMI) 1640 media supplemented with 10% FBS (Multicell), Penicillin (100 U/mL), Streptomycin (100 ug/mL) and 2 mM L-glutamine (Gibco/Life Technologies). Cells were plated in logarithmic growth phase in each well of clear bottom multiwell plates and cultured 16-24 h before drug treatment. […]
(§3) Cell viability was determined by cellular quantitation of adenosine triphosphate (ATP) using the CellTiter-Glo Luminescent Cell Viability Assay Kit (Promega Corporation, Cat. No. G7571). Briefly, the CellTiter-Glo «one-mix-measure» reagent, containing both the cell permeabilizing agent and the Ultra-Glo luciferase, was added to the cell culture according to manufacturers' instructions allowing the free ATP to be released from viable cells and subsequently converted into luminescence. The luminescence generated in the reaction is directly proportional to cell viability and was quantified in a luminometer (PHERAstar FS, BMG Labtech) […]

[9] = in vitro; conditions: male, CD-1, mouse, microsomes
[10] = target: T1, hFPPS (Homo sapiens (Human), UniProt P14324); conditions: read-out: hFPPS IC50
[11] = test system: multiple myeloma cell line RPMI-8226; experiment: Apoptosis assay in multiple myeloma cells (flow cytometry); type: cell-based, human; conditions: 100 nM, 500 nM, and 1 μM, 72 h, FIG. 6
Procedure: To determine the ability of compounds of the application to induce MM cell lines to undergo apoptosis, cells were seeded at a density of 7.5×10^5/mL in medium supplemented with 10% FBS with increasing concentrations of compound (i.e. compound that inhibits hGGPPS) or vehicle alone. Following a 72 h incubation, apoptosis was determined by double staining with APC Annexin V (BD Biosciences, Mississauga ON) and eFluor 780 Viability dye (ThermoFisher Scientific) according to the manufacturer's directions. Stained samples were acquired on a BD FACSCanto II instrument (BD Biosciences, Mississauga ON) and post-acquisition analyses were performed using FlowJo (V10) software. Apoptosis of multiple myeloma cells was also determined by flow cytometry by double staining cells with Allophycocyanin (APC) conjugated Annexin V and a V450 conjugated Mouse Anti-Human CD138 monoclonal antibody, following the manufacturer's instructions (BD Biosciences, Mississauga ON).

[12] = test system: phosphorylated Tau protein (P-Tau); experiment: Phosphorylation of the tau protein in immortalized human neurons; type: cell-based; conditions: immortalized human neurons (SH-SYSY)
[13] = test system: acute monocytic leukemia (MOLM-13) cells; experiment: Cancer cell viability; type: cell-based, human; conditions: compared to zolendronate (ZOL), FIG. 4
Procedure: as §2, §3

[14] = test system: chronic myelogenous leukemia (K562) cells; experiment: Cancer cell viability; type: cell-based, human; conditions: compared to zolendronate (ZOL), FIG. 4
Procedure: as §2, §3

[15] = test system: SH-SYSY neurons; experiment: LDH toxicity assay in immortalized human neurons; type: cell-based
[16] = target: T1, hFPPS; experiment: biochemical

recombinant human GGPPS, sequence (O95749 whole entry): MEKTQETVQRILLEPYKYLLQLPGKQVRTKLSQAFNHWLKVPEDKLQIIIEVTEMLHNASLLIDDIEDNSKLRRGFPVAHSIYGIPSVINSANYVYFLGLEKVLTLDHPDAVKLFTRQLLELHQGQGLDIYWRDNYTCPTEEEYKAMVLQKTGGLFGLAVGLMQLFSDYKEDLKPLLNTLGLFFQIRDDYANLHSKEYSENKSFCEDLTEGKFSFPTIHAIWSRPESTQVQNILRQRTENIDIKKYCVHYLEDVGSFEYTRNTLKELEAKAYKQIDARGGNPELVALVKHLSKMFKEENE
T1 sequence (P14324 whole entry): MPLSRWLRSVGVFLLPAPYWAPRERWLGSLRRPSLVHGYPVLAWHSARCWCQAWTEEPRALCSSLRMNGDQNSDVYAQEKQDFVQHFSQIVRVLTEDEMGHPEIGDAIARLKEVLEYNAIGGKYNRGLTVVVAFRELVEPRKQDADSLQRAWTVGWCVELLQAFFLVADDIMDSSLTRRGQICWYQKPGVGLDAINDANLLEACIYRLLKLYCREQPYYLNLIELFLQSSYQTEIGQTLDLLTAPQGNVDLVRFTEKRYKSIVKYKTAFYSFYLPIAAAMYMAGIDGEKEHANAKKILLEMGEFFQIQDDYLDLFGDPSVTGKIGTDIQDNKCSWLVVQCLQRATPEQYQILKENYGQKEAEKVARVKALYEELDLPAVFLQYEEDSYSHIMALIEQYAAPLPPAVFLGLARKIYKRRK

Row | SMILES | EC50 [1] [nM] | IC50 [2] [µM] | Ratio of hFPPS IC50 vs hGGPPS IC50 [2] | IC50 [10] [nM] | EC50 [5] [nM] | EC50 [6] [nM] | other results
1 | COc1ccc(NC(=O)c2cccc(-c3nc(NC(P(=O)(O)O)P(=O)(O)O)c4ccsc4n3)c2)cc1F [Compound I-37, (((2-(3-((3-fluoro-4-methoxyphenyl)carbamoyl)phenyl)thieno[2,3-d]pyrimidin-4-yl)amino)methylene)bis(phosphonic acid)] | 150 |  |  |  | 510 | 170 | half-life [3]: 154 min; half-life [4]: 187 min; difference in relative retention time on C-18 reversed phase HPLC column (lipophilicity) [7]: more than 7 min; toxicity to normal human bronchial cells [8]: less toxic; half-life [9]: 128 min
2 | O=P(O)(O)C(Nc1ncnc2sc(-c3ccc(OC4CC4)cc3)cc12)P(=O)(O)O [Compound C-13, reference compound] | > 50000 | ~10000 | >7 × 10^−5 | 14 | > 10000 |  | 
3 | COC(C(=O)Nc1cccc(-c2nc(NC(P(=O)(O)O)P(=O)(O)O)c3ccsc3n2)c1)c1ccccc1 (stereo not drawn) [Compound I-24] |  |  |  |  |  |  | apoptosis [11]: induce apoptosis
4 | O=P(O)(O)C(O)(Cc1cccnc1)P(=O)(O)O [RIS, Risedronic acid, reference compound] |  |  |  |  | 10000 | 10600 | 
5 | O=P(O)(O)C(O)(Cn1ccnc1)P(=O)(O)O [ZOL, zoledronic acid, reference compound] |  |  |  |  | 5000 | 6400 | Reduction in P-Tau/Total-tau protein [12]: 50%
6 | O=P(O)(O)C(Nc1ncnc2sc(-c3ccc(C(F)(F)F)cc3)cc12)P(=O)(O)O [Compound C-12, reference compound] | > 50000 | ~10000 | >4 × 10^−5 | 23 | > 10000 |  | 
7 | O=P(O)(O)C(Nc1ncnc2sc(-c3ccccc3)cc12)P(=O)(O)O [Compound C-10, reference compound] |  |  |  | 200 |  |  | 
8 | O=P(O)(O)C(Nc1nc(-c2ccccc2)nc2sccc12)P(=O)(O)O [Compound C-5, reference compound] |  | 0.082 | ~7 |  |  |  | IC50 [16]: 540 nM

Further lines, with some results ahead:

Row | EC50 [1] [nM] | IC50 [2] [µM] | Ratio of hFPPS IC50 vs hGGPPS IC50 [2] | IC50 [10] [nM] | SMILES | EC50 [5] [nM] | EC50 [6] [nM] | other results
9 | 200 | 0.085 |  |  | COc1ccc(NC(=O)c2cccc(-c3nc(NC(P(=O)(O)O)P(=O)(O)O)c4sccc4n3)c2)cc1F [Compound I-42, (((2-(3-((3-fluoro-4-methoxyphenyl)carbamoyl)phenyl)thieno[3,2-d]pyrimidin-4-yl)amino)methylene)bis(phosphonic acid)] |  |  | 
10 | 110 | 0.053 | 57 | 3000 | O=C(Nc1ccccc1)c1cccc(-c2nc(NC(P(=O)(O)O)P(=O)(O)O)c3ccsc3n2)c1 [Compound I-6, (((2-(3-(phenylcarbamoyl)phenyl)thieno[2,3-d]pyrimidin-4-yl)amino)methylene)bis(phosphonic acid)] | 340 | 700 | selectivity improved for inhibiting hGGPPS vs hFPPS [2]: ~55 fold; blocking viability of cancer cells [13]: more effective; blocking viability of cancer cells [14]: more effective
11 | 140 | 0.065 |  |  | COc1ccc(NC(=O)c2cccc(-c3nc(NC(P(=O)(O)O)P(=O)(O)O)c4ncsc4n3)c2)cc1F [Compound I-43] |  |  | 
12 | 380 | 0.085 | 12 | 1000 | COc1ccc(C(=O)Nc2cccc(-c3nc(NC(P(=O)(O)O)P(=O)(O)O)c4ccsc4n3)c2)cc1 [Compound I-5, (((2-(3-(4-methoxybenzamido)phenyl)thieno[2,3-d]pyrimidin-4-yl)amino)methylene)bis(phosphonic acid)] | 1300 | 1400 | Reduction in P-Tau/Total-tau protein [12]: 43%; LDH Toxicity Assay (relative toxicity compared to the control samples) [15]: None observed
13 | 100 | 0.064 | 31 | 2000 | O=C(Nc1cccc(-c2nc(NC(P(=O)(O)O)P(=O)(O)O)c3ccsc3n2)c1)c1ccccc1 [Compound I-13] | 500 | 550 | selectivity improved for inhibiting hGGPPS vs hFPPS [2]: approximately 30 fold
14 | 120 |  |  |  | Cc1ccc(C(=O)Nc2cccc(-c3nc(NC(P(=O)(O)O)P(=O)(O)O)c4ccsc4n3)c2)cc1 [Compound I-18, (((2-(3-(4-methylbenzamido)phenyl)thieno[2,3-d]pyrimidin-4-yl)amino)methylene)bis(phosphonic acid)] | 600 | 620 | IC50 [16]: 2400 nM
